Here are results for 23 compounds from US7678808B2, “5 HT receptor mediated neurogenesis” (BrainCells, Inc., priority 2006, dated 2010).

Each structure is given as a SMILES string. “Also recorded” adds a separate entry of the source. Counter-ions that a name gives are not always drawn.

Test [1] concerns human neural stem cells (hNSCs). Nature of the test: Neuronal differentiation of human neural stem cells (TUJ-1 staining). The format is cell-based. The following applies: for EC50: agent alone, data as % of neuronal positive control, basal media subtracted; for EC50 / effect on neuronal differentiation (in words): hNSC; for effect on neuronal differentiation (in words): TUJ-1. The text has this:
Mitogen-free test media with a positive control was used for neuronal differentiation, and basal media without growth factors served as a negative control.
Mitogen-free test media with a positive control for neuronal differentiation was used, and basal media without growth factors served as a negative control.
(§1) Human neural stem cells (hNSCs) were isolated and grown in monolayer culture, plated, treated with varying concentrations of buspirone in the presence or absence of the melatonin agonist melatonin, and stained with TUJ-1 antibody for the detection of neuronal differentiation or GFAP antibody for the detection of astrocyte differentiation, as described above. Mitogen-free test media with a positive control for neuronal differentiation was used along with basal media without growth factors as a negative control.
Human neural stem cells (hNSCs) were isolated and grown in monolayer culture, plated, treated with varying concentrations of a 5-HT3 antagonist and stained with TUJ-1 antibody, as described above. Mitogen-free test media with a positive control for neuronal differentiation was used along with basal media without growth factors as a negative control.
Human neural stem cells (hNSCs) were isolated and grown in monolayer culture, plated, treated with varying concentrations of a 5-HT4 agonist and stained with TUJ-1 antibody, as described above. Mitogen-free test media with a positive control for neuronal differentiation was used along with basal media without growth factors as a negative control.
The presence of synergy was determined by use of a combination index (CI). […] The CI is a quantitative measure of the nature of drug interactions, comparing the EC50's of two compounds, when each is assayed alone, to the EC50 of each compound when assayed in combination. The combination index (CI) is equal to the following formula: […]
where C1 and C2 are the concentrations of a first and a second compound, respectively, resulting in 50% activity in neuronal differentiation when assayed in combination; and IC1 and IC2 are the concentrations of each compound resulting in 50% activity when assayed independently.

Test [2] shares this test system. The test is described as follows: Astrocyte differentiation of hNSCs (GFAP staining). It counts as cell-based. The following applies: for effect on astrocyte differentiation (in words): GFAP; for EC50: Homo sapiens, Neural stem cell. On the procedure: Experiments were carried out as described in Example 1, except the positive control for astrocyte differentiation contained mitogen-free test media with a positive control, and cells were stained with GFAP antibody.
Experiments were carried out as described in Example 2, except the positive control for astrocyte differentiation contained mitogen-free test media with a different positive control.
as §1

The test system of test [3] is KA, AMPA, and NMDA iGlu receptors. The following applies: cited from earlier work.
For a further test, the target named is human mGlu2 (Homo sapiens, UniProt Q14416). The following applies: in vitro; low nanomolar range; read-out: EC50 against human mGlu2 receptors; cited from earlier work.
The next test deals with human mGlu3 (Homo sapiens, UniProt Q14832). The following applies: in vitro; low nanomolar range; read-out: EC50 against human mGlu3 receptors; cited from earlier work.
For test [4], the system named is human neural stem cells (hNSC). Nature of the test: Immunohistochemistry with neuronal and astrocyte markers (TUJ-1, GFAP, Hoechst 33342). The note with it: incubated with 30 μM. It counts as cell-based. On the procedure:
Immunohistochemistry was carried out as described above using TUJ-1 as a neuronal cell marker and GFAP as an astrocyte marker. The results are shown in FIG. […] Immunohistochemistry was carried out as described in Example 3.

Test [5] concerns Male F344 rats. The test is described as follows: Novel Object Recognition (NOR) cognition assay. The format is in vivo, rat. The note with it: fluoxetine 5 and 10 mg/kg p.o., 1x per day for 28 days. An excerpt:
The apparatus consisted of an open field (45×45×50 cm high) made of polycarbonate. Triplicate copies were used of the objects to be discriminated. Care was taken to ensure that the pair of objects tested were made from the same material so that they could not be distinguished readily by olfactory cues although they had very different appearances.
Each test session consisted of two phases. In the initial familiarization phase, two identical objects (A1 and A2) were placed in the far corners of the box arena. A rat was then placed in the middle of the arena and allowed 15 minutes to explore both objects. Exploration of an object was defined as directing the nose to the object at a distance of less than 2 cm and/or touching it with the nose. After a delay of 48-hours the rat was re-introduced to the arena (“test phase”). The box now contained a third identical copy of the familiar object (A3) and a new object (B). These were placed in the same locations as the sample stimuli, whereby the position (left or right) of the novel object in the test phase was balanced between rats. For half the rats, object A was the sample and object B was the novel alternative. The test phase was 15 minutes in duration, with the first 30 seconds of object interaction used to determine preference scores. Any animal with less than 15 seconds of object exploration were excluded from analysis.

The subject of test [6] is Male F344 rats. The test is described as follows: Novelty suppressed feeding (NSF) depression assay. The format is in vivo, rat. The following applies: 1x per day for 21 days. On the procedure:
Twenty-four hours prior to behavioral testing, all food is removed from the home cage. At the time of testing a single pellet is placed in the center of a novel arena. Animals are placed in the corner of the arena and latency to eat the pellet is recorded. […] Animals receive compound daily for 21 days and testing is performed on day 21. A decreased latency to eat the food pellet is indicative of both neurogenesis and antidepressant activity.
Twenty-four hours prior to behavioral testing, all food is removed from the home cage. At the time of testing a single pellet is placed in the center of a novel arena. Animals are placed in the corner of the arena and the latency (in time) to eat the pellet is recorded. […] Animals receive compound daily for 21 days and testing is performed on day 21. A decreased latency to eat the food pellet is indicative of both neurogenesis and antidepressant activity.

The test system of test [7] is granule cell layer of the dentate gyrus. The test is described as follows: In vivo neurogenesis (BrdU positive cell counts). More on the design: species or system rat. The following applies: 0.5 mg/kg buspirone, 3.0 mg/kg melatonin or both, i.p., 1x per day for 28 days. On the procedure: BrdU was administered once daily between days 9 and 14 (100 mg/kg/day, i.p., n=12 per dose group). […] Data are presented as percent change in BrdU positive cells per cubic mm dentate gyrus.

[8] abbreviates: agent alone, hNSC, % of astrocyte positive control, basal media subtracted.

human mGlu3, sequence (Q14832 23-879): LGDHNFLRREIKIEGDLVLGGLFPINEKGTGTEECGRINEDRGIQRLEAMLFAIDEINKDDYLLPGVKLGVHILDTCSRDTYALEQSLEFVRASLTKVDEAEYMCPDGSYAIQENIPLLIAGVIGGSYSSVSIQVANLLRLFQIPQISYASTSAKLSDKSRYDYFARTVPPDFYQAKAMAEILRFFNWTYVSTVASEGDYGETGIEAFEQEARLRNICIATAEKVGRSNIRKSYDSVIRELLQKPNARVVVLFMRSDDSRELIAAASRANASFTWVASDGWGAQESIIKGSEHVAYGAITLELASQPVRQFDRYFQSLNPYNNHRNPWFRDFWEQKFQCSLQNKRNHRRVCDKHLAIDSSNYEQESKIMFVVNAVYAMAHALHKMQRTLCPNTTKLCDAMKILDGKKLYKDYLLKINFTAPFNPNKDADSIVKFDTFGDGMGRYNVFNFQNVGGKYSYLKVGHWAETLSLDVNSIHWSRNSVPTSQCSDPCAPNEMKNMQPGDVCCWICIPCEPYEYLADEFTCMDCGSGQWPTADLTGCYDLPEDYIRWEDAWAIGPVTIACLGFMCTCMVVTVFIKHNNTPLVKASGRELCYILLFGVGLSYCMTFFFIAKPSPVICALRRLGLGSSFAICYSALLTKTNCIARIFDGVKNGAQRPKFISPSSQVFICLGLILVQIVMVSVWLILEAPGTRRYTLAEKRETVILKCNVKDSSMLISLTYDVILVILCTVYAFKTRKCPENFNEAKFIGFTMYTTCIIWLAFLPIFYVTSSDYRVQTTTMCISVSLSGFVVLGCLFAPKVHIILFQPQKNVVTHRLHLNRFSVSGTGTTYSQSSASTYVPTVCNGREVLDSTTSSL
human mGlu2, sequence (Q14416 19-872): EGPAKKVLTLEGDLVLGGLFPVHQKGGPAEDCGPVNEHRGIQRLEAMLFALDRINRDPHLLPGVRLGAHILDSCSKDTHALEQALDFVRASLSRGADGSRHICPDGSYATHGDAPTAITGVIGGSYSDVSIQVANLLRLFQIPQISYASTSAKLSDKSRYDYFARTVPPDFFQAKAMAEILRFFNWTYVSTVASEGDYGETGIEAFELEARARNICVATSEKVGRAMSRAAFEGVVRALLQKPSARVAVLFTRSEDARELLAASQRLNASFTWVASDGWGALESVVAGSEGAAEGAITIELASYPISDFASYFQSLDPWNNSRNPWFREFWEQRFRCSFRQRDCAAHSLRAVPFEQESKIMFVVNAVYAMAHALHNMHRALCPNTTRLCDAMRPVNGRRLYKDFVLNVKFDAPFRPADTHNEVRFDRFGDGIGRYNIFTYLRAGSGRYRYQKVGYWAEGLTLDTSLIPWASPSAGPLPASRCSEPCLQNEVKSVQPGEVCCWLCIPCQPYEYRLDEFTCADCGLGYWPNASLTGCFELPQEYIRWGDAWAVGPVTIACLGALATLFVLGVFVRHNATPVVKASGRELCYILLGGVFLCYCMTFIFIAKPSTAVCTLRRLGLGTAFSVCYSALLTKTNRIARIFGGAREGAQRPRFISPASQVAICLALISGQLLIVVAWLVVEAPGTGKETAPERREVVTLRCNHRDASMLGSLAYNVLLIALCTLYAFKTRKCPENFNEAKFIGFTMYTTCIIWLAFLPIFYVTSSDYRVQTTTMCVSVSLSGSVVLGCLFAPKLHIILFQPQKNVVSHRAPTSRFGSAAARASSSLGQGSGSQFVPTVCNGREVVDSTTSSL

For orientation: EC50 means the concentration needed to bring the measured effect to its halfway point. `N[C@@H](Cc1c[nH]c2ccc(O)cc12)C(=O)O` [5-HTP, 5-hydroxytryptophan]: the EC50 in [1] (Homo sapiens, Neural stem cell) amounted to 12 µM. Moreover, in test [1], the “effect on neuronal differentiation (in words)” value was “weakly promoted neuronal differentiation”. In addition, in test [2] (setting [8]), the “EC50, astrocyte differentiation” value is given as “undeterminable”. Further, the “effect on astrocyte differentiation (in words)” value in test [2] (hNSC) is recorded as “no significant increase in astrocyte differentiation above basal media values”.
In the case of `N[C@](CC1c2ccccc2Oc2ccccc21)(C(=O)O)[C@H]1C[C@@H]1C(=O)O` [LY341495, (2S)-2-amino-2-(1S,2S-2-carboxycycloprop-1-yl)-3-(xanth-9-yl) propanoic acid], in test [3], the “activity against KA, AMPA, and NMDA iGlu receptors” value is “substantially inactive”.
Consider `N[C@@]1(C(=O)O)CO[C@H]2[C@H](C(=O)O)[C@H]21` [LY379268, (−)-2-oxa-4-aminobicyclohexane-4,6-dicarboxylic acid], for which the EC50 at human mGlu2 and on human mGlu3 was under 0.01 µM each time.
Take `COc1ccc2cccc(CCNC(C)=O)c2c1` [agomelatine]: the EC50 in test [1] (Homo sapiens, Neural stem cell) amounted to 8.7 µM. Further, in [1], the “effect on neuronal differentiation (in words)” value is “promotes differentiation of neural stem cells into neurons”.
As for `CN1C(=O)COc2c(C(=O)NC3CN4CCC3CC4)cc(Cl)cc21` (centres unmarked) [azasetron], the EC50 was 5.8 µM in [1] and over 31.6 µM in test [2] (setting [8]). Moreover, the figures for the “effect on neuronal differentiation (in words)” value in test [1] and in test [1] (listed as Azasetron) were “promote differentiation of neural stem cells into neurons” and “significantly promoted neuronal differentiation”, respectively. Further, the “effect on astrocyte differentiation (in words)” value in test [2] (hNSC) was “did not show a significant effect on astrocyte differentiation”. The maximum astrocyte differentiation in test [2] (percent of positive control, agent alone or in combination) was found to be 33%. The “lineage of hNSC monolayer in immunofluorescent image” value in test [4] is given as “primarily of a neuronal lineage”.
On to `NCC(CC(=O)O)c1ccc(Cl)cc1` (centres unmarked) [baclofen], for which the half-maximal effective concentration (EC50) is 3.9 µM in test [1] (Homo sapiens, Neural stem cell) and over 31.6 µM in test [2] (setting [8]).
As to `C[C@H](CS)C(=O)N1CCC[C@H]1C(=O)O` [captopril], in [1] (Homo sapiens, Neural stem cell), the EC50 came out at 5.4 µM.
The same measure, in the same setting: in the case of `NC(=O)N1c2ccccc2C=Cc2ccccc21` [carbemazepine] it was 15.7 µM.
As for `COc1cc(N)c(Cl)cc1C(=O)NC1CCN(CCCOc2ccc(F)cc2)CC1OC` (centres unmarked) [cisapride], the concentration for a half-maximal effect (EC50) in [1] (Homo sapiens, Neural stem cell) stood at 7.9 µM. Further, the “effect on neuronal differentiation (in words)” value in test [1] is reported as “promote differentiation of neural stem cells into neurons”.
Consider `NCCc1ccc(O)c(O)c1` [dopamine, 4-(2-aminoethyl)benzene-1,2-diol], for which, in [1] (dopamine alone or with 10 μM or 30 μM 5-HTP), the “neuronal differentiation, dopamine dose response” value was “did not significantly enhance neuronal differentiation”.
Turning to `CNCCC(Oc1ccc(C(F)(F)F)cc1)c1ccccc1` (centres unmarked) [fluoxetine], the “preference for the novel object (visits, time spent)” value in the test with Male F344 rats [5] was “increased both the number of visits to, and the amount of time spent with, the novel object; also recorded: dose dependent increase in preference for the novel object”. In addition, the “latency to eat the food pellet” value in the test with Male F344 rats [6] (fluoxetine 10.0 mg/kg p.o.) is listed as “reduced the latency to eat the food pellet”.
Turning to `Nc1nc2ncc(CNc3ccc(C(=O)N[C@@H](CCC(=O)O)C(=O)O)cc3)nc2c(=O)[nH]1` [folic acid], in test [1] (Homo sapiens, Neural stem cell), the EC50 amounted to 4.5 µM.
On to `NCC1(CC(=O)O)CCCCC1` [gabapentin], for which the EC50 in [1] (Homo sapiens, Neural stem cell) amounted to 11.5 µM.
Regarding `CN1C2CCCC1CC(NC(=O)c1nn(C)c3ccccc13)C2` (centres unmarked) [granisetron], the “effect on neuronal differentiation (in words)” value in test [1] is on record as “promote differentiation of neural stem cells into neurons”.
Consider `CC(C)C(=O)c1c(C(C)C)nn2ccccc12` [ibudilast], for which, in [1] (Homo sapiens, Neural stem cell), the EC50 was found to be 0.72 µM.
Take `COc1ccc2[nH]cc(CCNC(C)=O)c2c1` [melatonin]: the EC50 in test [1] (Homo sapiens, Neural stem cell) is over 31.6 µM; in test [2] (setting [8]) it was over 31.6 µM. The “latency to eat the food pellet (percent baseline)” value in the test with Male F344 rats [6] (0.5 mg/kg buspirone, 3.0 mg/kg melatonin or both, i.p.) is “did not significantly reduce the latency to eat the food pellet”. The “BrdU positive cells per cubic mm dentate gyrus (percent change)” value in test [7] is given as “did not significantly change the number of BrdU positive cells”.
For the compound `COC(=O)C(c1ccccc1)C1CCCCN1` (centres unmarked) [methylphenidate], in test [1] (Homo sapiens, Neural stem cell), the EC50 is 2.2 µM.
On to `NC(=O)C[S+]([O-])C(c1ccccc1)c1ccccc1` (centres unmarked) [modafinil], for which the EC50 in test [1] (Homo sapiens, Neural stem cell) is 12.5 µM; in [2] (agent alone, hNSC), over 31.6 µM.
Regarding `CCOc1cc(N)c(Cl)cc1C(=O)NCC1CN(Cc2ccc(F)cc2)CCO1` (centres unmarked) [mosapride citrate], the EC50 in test [1] (Homo sapiens, Neural stem cell) was about 15.8 µM; in test [1] it was 10.4 µM; in test [2] (setting [8]), over 31.6 µM. Also, the results for the “effect on neuronal differentiation (in words)” value in test [1] (listed as Mosapride citrate) and in [1] (listed as mosapride) were “significantly promoted neuronal differentiation” and “promote differentiation of neural stem cells into neurons”, respectively. Besides, the “effect on astrocyte differentiation (in words)” value in [2] (hNSC) is recorded as “did not show a significant effect on astrocyte differentiation”. The “lineage of hNSC monolayer in immunofluorescent image” value in test [4] is given as “primarily of a neuronal lineage”.
Consider `O=C1CC[C@@]2(O)[C@H]3Cc4ccc(O)c5c4[C@@]2(CCN3CC2CC2)[C@H]1O5` [naltrexone], for which, in test [1] (Homo sapiens, Neural stem cell), the EC50 was found to be 0.39 µM.
For `Cc1nccn1CC1CCc2c(c3ccccc3n2C)C1=O` (centres unmarked) [ondansetron], the concentration for a half-maximal effect (EC50) in test [1] (Homo sapiens, Neural stem cell) was 23.9 µM. The “effect on neuronal differentiation (in words)” value in test [1] is given as “promote differentiation of neural stem cells into neurons”.
The matching figures for `CNS(=O)(=O)Cc1ccc2[nH]cc(CCN(C)C)c2c1` [sumatriptan]: 14.9 µM and “promotes differentiation of neural stem cells into neurons”.
Consider `O=C1[C@@H]2[C@H]3CC[C@H](C3)[C@@H]2C(=O)N1CCCCN1CCN(c2ncccn2)CC1` [tandospirone], for which the EC50 stood at 12.1 µM in test [1] (Homo sapiens, Neural stem cell) and 8.69 µM in test [2] (setting [8]).
